Laboratory results reported in the supplement of paper PMC4932681.

Columns and labels:
ZR-75-1 [1] = test: relative IC50 (midpoint of fitted logistic curve, plateau may be below 50% inhibition; CellTiter-Glo viability); higher = less potent; conditions: 72 h
How it was run: (§1)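 After seeding into 384-well plates with library drugs at five concentrations spanning a 10 000-fold range, breast cancer cell lines and their resistant derivatives were incubated 72 h at 37 °C. Resistant lines received medium with 1 μM of the selecting drug. CellTiter-Glo signal was read on a PHERAstar and scaled to vehicle-only and positive controls. Drug sensitivity score, relative IC50 (the curve midpoint) and top-dose inhibition came from logistic fits run in the Breeze pipeline.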

T-47D Tam2 [2] = test: as above; conditions: 4-OH-tamoxifen in medium 1 µM; 72 h
How it was run: as §1

BT-474 Tam2 [3] = test: as above; conditions: 4-OH-tamoxifen in medium 1 µM; 72 h
How it was run: as §1

MCF-7 Tam1 [4] = test: as above; conditions: 4-OH-tamoxifen in medium 1 µM; 72 h
How it was run: as §1

BT-474 [5] = test: as above; conditions: 72 h
How it was run: as §1

MCF-7 [6] = test: as above; conditions: 72 h
How it was run: as §1

ZR-75-1 Tam1 [7] = test: as above; conditions: 4-OH-tamoxifen in medium 1 µM; 72 h
How it was run: as §1

ZR-75-1 Tam2 [8] = test: as above; conditions: 4-OH-tamoxifen in medium 1 µM; 72 h
How it was run: as §1

T-47D [9] = test: as above; conditions: 72 h
How it was run: as §1

BT-474 Tam1 [10] = test: as above; conditions: 4-OH-tamoxifen in medium 1 µM; 72 h
How it was run: as §1

ZR-75-1 [11] = test: drug sensitivity score (DSS) (DSS (dimensionless)); higher = more sensitive; extreme values may be limits of the assay; conditions: 72 h
How it was run: as §1

T-47D Tam2 [12] = test: as above; conditions: 4-OH-tamoxifen in medium 1 µM; 72 h
How it was run: as §1

T-47D Tam1 [13] = test: as above; conditions: 4-OH-tamoxifen in medium 1 µM; 72 h
How it was run: as §1

BT-474 Tam2 [14] = test: as above; conditions: 4-OH-tamoxifen in medium 1 µM; 72 h
How it was run: as §1

MCF-7 Tam1 [15] = test: as above; conditions: 4-OH-tamoxifen in medium 1 µM; 72 h
How it was run: as §1

BT-474 [16] = test: as above; conditions: 72 h
How it was run: as §1

MCF-7 [17] = test: as above; conditions: 72 h
How it was run: as §1

ZR-75-1 Tam1 [18] = test: as above; conditions: 4-OH-tamoxifen in medium 1 µM; 72 h
How it was run: as §1

ZR-75-1 Tam2 [19] = test: as above; conditions: 4-OH-tamoxifen in medium 1 µM; 72 h
How it was run: as §1

T-47D [20] = test: as above; conditions: 72 h
How it was run: as §1

BT-474 Tam1 [21] = test: as above; conditions: 4-OH-tamoxifen in medium 1 µM; 72 h
How it was run: as §1

T-47D Tam1 [22] = test: relative IC50 (midpoint of fitted logistic curve, plateau may be below 50% inhibition; CellTiter-Glo viability); higher = less potent; conditions: 4-OH-tamoxifen in medium 1 µM; 72 h
How it was run: as §1

Structure (SMILES) | relative IC50 (ZR-75-1 [1]; 4-OH-tamoxifen in medium 0 µM) | relative IC50 (ZR-75-1 [1]; 4-OH-tamoxifen in medium 1 µM) | relative IC50 (T-47D Tam2 [2]) | relative IC50 (BT-474 Tam2 [3]) | relative IC50 (MCF-7 Tam1 [4]) | relative IC50 (BT-474 [5]; 4-OH-tamoxifen in medium 0 µM) | relative IC50 (BT-474 [5]; 4-OH-tamoxifen in medium 1 µM) | relative IC50 (MCF-7 [6]; 4-OH-tamoxifen in medium 0 µM) | relative IC50 (MCF-7 [6]; 4-OH-tamoxifen in medium 1 µM) | relative IC50 (ZR-75-1 Tam1 [7]) | relative IC50 (ZR-75-1 Tam2 [8]) | relative IC50 (T-47D [9]; 4-OH-tamoxifen in medium 0 µM) | relative IC50 (BT-474 Tam1 [10]) | drug sensitivity score (ZR-75-1 [11]; 4-OH-tamoxifen in medium 0 µM) | drug sensitivity score (ZR-75-1 [11]; 4-OH-tamoxifen in medium 1 µM) | drug sensitivity score (T-47D Tam2 [12]) | drug sensitivity score (T-47D Tam1 [13]) | drug sensitivity score (BT-474 Tam2 [14]) | drug sensitivity score (MCF-7 Tam1 [15]) | drug sensitivity score (BT-474 [16]; 4-OH-tamoxifen in medium 0 µM) | drug sensitivity score (BT-474 [16]; 4-OH-tamoxifen in medium 1 µM) | drug sensitivity score (MCF-7 [17]; 4-OH-tamoxifen in medium 0 µM) | drug sensitivity score (MCF-7 [17]; 4-OH-tamoxifen in medium 1 µM) | drug sensitivity score (ZR-75-1 Tam1 [18]) | drug sensitivity score (ZR-75-1 Tam2 [19]) | drug sensitivity score (T-47D [20]; 4-OH-tamoxifen in medium 0 µM) | drug sensitivity score (T-47D [20]; 4-OH-tamoxifen in medium 1 µM) | drug sensitivity score (BT-474 Tam1 [21]) | relative IC50 (T-47D Tam1 [22]) | relative IC50 (T-47D [9]; 4-OH-tamoxifen in medium 1 µM)
N#Cc1ccc(C(c2ccc(C#N)cc2)n2cncn2)cc1 [Letrozole] | > 10000 nM | > 10000 nM | > 10 µM | > 10 µM | > 10 µM | > 10 µM | > 10 µM | > 10 µM | > 10 µM | > 10 µM | > 10 µM | > 10 µM | > 10 µM | 0 | 0 | 0 | 2.88 | 0 | 0 | 0 | 0 | 0 | 0 | 0 | 0 | 0 | 11.1 | 0 | – | –
CN(C)CCOc1ccc(/C(=C(/CCCl)c2ccccc2)c2ccccc2)cc1 [Toremifene (citrate)] | > 10000 nM | – | 3.46 µM | 3.02 µM | 4.15 µM | – | 3.52 µM | – | 3.69 µM | – | – | > 10 µM | 3.41 µM | 0 | 0.599 | 3.09 | 3.53 | 5.77 | 1.2 | 0.652 | 4.16 | 0.353 | 3.26 | 0.357 | 0.814 | 0 | 0 | 4.96 | 1860 nM | > 10 µM
Nc1ccn([C@@H]2O[C@H](CO)[C@@H](O)[C@@H]2O)c(=O)n1 [Cytarabine] | 1500 nM | – | > 10 µM | > 10 µM | > 10 µM | > 10 µM | > 10 µM | 0.435 µM | – | – | – | 1.94 µM | > 10 µM | 3.25 | 0.265 | 0 | 4.13 | 0 | 0 | 0 | 0 | 4.84 | 1.56 | 1.96 | 2.46 | 2.75 | 0 | 0 | 580 nM | > 10 µM
COc1cc([C@@H]2c3cc4c(cc3[C@@H](O[C@@H]3O[C@@H]5CO[C@@H](C)O[C@H]5[C@H](O)[C@H]3O)[C@H]3COC(=O)[C@H]23)OCO4)cc(OC)c1O [Etoposide] | 612 nM | – | > 10 µM | > 10 µM | > 10 µM | > 10 µM | – | > 10 µM | – | – | – | 0.605 µM | – | 3.42 | 0.761 | 0 | 5.76 | 0 | 0 | 0 | 1.71 | 0 | 0.239 | 1.42 | 1.13 | 6.74 | 0.625 | 0.0698 | 667 nM | –
